Columns and labels:
[1] = refractive index (other wavelength) (dimensionless); details: 100 kPa, Liquid, Wavelength=632.8 nm, Standard Abbe refractometry
[2] = refractive index (other wavelength) (dimensionless); xn = mol fraction of the nth substance listed; details: 100 kPa, Liquid, Wavelength=632.8 nm, Standard Abbe refractometry

CCCCCCCCCCCCCCCCC [heptadecane]
[1]
Details | refractive index
298.76 K | 1.4331
299.97 K | 1.4326
301.18 K | 1.4321
302.15 K | 1.4317
303.27 K | 1.4313
304.24 K | 1.4309
305.29 K | 1.4304
306.32 K | 1.43
307.42 K | 1.4296
307.55 K | 1.4296

CCCCCCCCCCCCCCC [pentadecane] + N#Cc1ccccc1
[2]
Details | refractive index
293.37 K, x2 = 0 | 1.4305
294.36 K, x2 = 0 | 1.4301
295.64 K, x2 = 0 | 1.4296
296.92 K, x2 = 0 | 1.429
297.91 K, x2 = 0 | 1.4286
299.12 K, x2 = 0 | 1.4281
300.26 K, x2 = 0 | 1.4276
301.51 K, x2 = 0 | 1.4271
302.46 K, x2 = 0 | 1.4267
302.65 K, x2 = 0 | 1.4266
302.65 K, x2 = 0.1097 | 1.4304
302.65 K, x2 = 0.22 | 1.435
302.65 K, x2 = 0.3283 | 1.4404
302.65 K, x2 = 0.4141 | 1.4454
302.65 K, x2 = 0.4959 | 1.451
302.65 K, x2 = 0.5849 | 1.4582
302.65 K, x2 = 0.7005 | 1.4698
302.65 K, x2 = 0.8052 | 1.4832
302.65 K, x2 = 0.8983 | 1.4986

N#Cc1ccccc1 [benzonitrile] + CCCCCCCCCCCCCCC
[2], x1 = 1
Details | refractive index
293.37 K | 1.5252
293.99 K | 1.5249
294.53 K | 1.5247
295.09 K | 1.5243
295.66 K | 1.5241
296.11 K | 1.5238
296.8 K | 1.5236
297.16 K | 1.5233
297.91 K | 1.523
298.2 K | 1.5228
298.8 K | 1.5225
298.83 K | 1.5226
299.26 K | 1.5223
300.06 K | 1.5219
300.12 K | 1.5219
300.31 K | 1.5218
301.13 K | 1.5214
301.23 K | 1.5214
301.35 K | 1.5213
302.26 K | 1.5209
302.31 K | 1.5209
302.42 K | 1.5208
302.65 K | 1.5207
303.41 K | 1.5203
304.49 K | 1.5198
305.64 K | 1.5192
306.89 K | 1.5186
307.88 K | 1.5181

N#Cc1ccccc1 [benzonitrile]
[1]
Details | refractive index
293.37 K | 1.5252
293.99 K | 1.5249
294.53 K | 1.5247
295.09 K | 1.5243
295.66 K | 1.5241
296.11 K | 1.5238
296.8 K | 1.5236
297.16 K | 1.5233
297.91 K | 1.523
298.2 K | 1.5228
298.8 K | 1.5225
298.83 K | 1.5226
299.26 K | 1.5223
300.06 K | 1.5219
300.12 K | 1.5219
300.31 K | 1.5218
301.13 K | 1.5214
301.23 K | 1.5214
301.35 K | 1.5213
302.26 K | 1.5209
302.31 K | 1.5209
302.42 K | 1.5208
302.65 K | 1.5207
303.41 K | 1.5203
304.49 K | 1.5198
305.64 K | 1.5192
306.89 K | 1.5186
307.55 K | 1.5183
307.88 K | 1.5181

CCCCCCCCCCCCCCC [pentadecane]
[1]
Details | refractive index
293.37 K | 1.4305
294.36 K | 1.4301
295.64 K | 1.4296
296.92 K | 1.429
297.91 K | 1.4286
299.12 K | 1.4281
300.26 K | 1.4276
301.51 K | 1.4271
302.46 K | 1.4267
302.65 K | 1.4266

N#Cc1ccccc1 [benzonitrile] + CCCCCCCCCCCCCCCCC
[2], x1 = 1
Details | refractive index
293.37 K | 1.5252
293.99 K | 1.5249
294.53 K | 1.5247
295.09 K | 1.5243
295.66 K | 1.5241
296.11 K | 1.5238
296.8 K | 1.5236
297.16 K | 1.5233
297.91 K | 1.523
298.2 K | 1.5228
298.8 K | 1.5225
298.83 K | 1.5226
299.26 K | 1.5223
300.06 K | 1.5219
300.12 K | 1.5219
300.31 K | 1.5218
301.13 K | 1.5214
301.23 K | 1.5214
301.35 K | 1.5213
302.26 K | 1.5209
302.31 K | 1.5209
302.42 K | 1.5208
303.41 K | 1.5203
304.49 K | 1.5198
305.64 K | 1.5192
306.89 K | 1.5186
307.55 K | 1.5183
307.88 K | 1.5181

CCCCCCCCCCCCCCCCC [heptadecane] + N#Cc1ccccc1
[2]
Details | refractive index
298.76 K, x2 = 0 | 1.4331
299.97 K, x2 = 0 | 1.4326
301.18 K, x2 = 0 | 1.4321
302.15 K, x2 = 0 | 1.4317
303.27 K, x2 = 0 | 1.4313
304.24 K, x2 = 0 | 1.4309
305.29 K, x2 = 0 | 1.4304
306.32 K, x2 = 0 | 1.43
307.42 K, x2 = 0 | 1.4296
307.55 K, x2 = 0 | 1.4296
307.55 K, x2 = 0.1039 | 1.4325
307.55 K, x2 = 0.2138 | 1.4362
307.55 K, x2 = 0.3266 | 1.4411
307.55 K, x2 = 0.4187 | 1.4458
307.55 K, x2 = 0.5127 | 1.4515
307.55 K, x2 = 0.5975 | 1.4578
307.55 K, x2 = 0.7127 | 1.4688
307.55 K, x2 = 0.8046 | 1.4802
307.55 K, x2 = 0.9266 | 1.501
